Experimental data published in PubChem BioAssay AID2060885 (Molecular Pharmacology Branch, DTP, NCI, 2025).

Test system: NCI-H23 complex spheroids with HUVEC/MSC, viability
Assay: Anticancer human tumor NCI-H23 cell line growth inhibition [RAS];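 further: spheroids exposed to compound for 7 days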;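 on viability, T/C: 100% = DMSO vehicle control viability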
Settings: for IC50: curve of first compound; for viability, T/C: stronger effect = lower value; active means viability on the fitted dose curve at most 10% of control; inactive means the rest
Outline: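 Tumour cells grown as complex spheroids with HUVEC endothelial cells and mesenchymal stem cells, treated with RAS pathway inhibitor combinations. Each agent spans half-log steps from near clinical Cmax, or 10 microM where Cmax is unknown.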

[1] = second compound 0.000949 µM, first compound 0.0316 µM
[2] = second compound 0.000949 µM, first compound 0.1 µM
[3] = second compound 0.000949 µM, first compound 0.316 µM
[4] = second compound 0.000949 µM, first compound 1 µM
[5] = second compound 0.000949 µM, first compound 3.16 µM
[6] = second compound 0.000949 µM, first compound 10 µM
[7] = second compound 0.003 µM, first compound 0.0316 µM
[8] = second compound 0.003 µM, first compound 0.1 µM
[9] = second compound 0.003 µM, first compound 0.316 µM
[10] = second compound 0.003 µM, first compound 1 µM
[11] = second compound 0.003 µM, first compound 3.16 µM
[12] = second compound 0.003 µM, first compound 10 µM
[13] = second compound 0.00949 µM, first compound 0.0316 µM
[14] = second compound 0.00949 µM, first compound 0.1 µM
[15] = second compound 0.00949 µM, first compound 0.316 µM
[16] = second compound 0.00949 µM, first compound 1 µM
[17] = second compound 0.00949 µM, first compound 3.16 µM
[18] = second compound 0.00949 µM, first compound 10 µM
[19] = second compound 0.03 µM, first compound 0.0316 µM
[20] = second compound 0.03 µM, first compound 0.1 µM
[21] = second compound 0.03 µM, first compound 0.316 µM
[22] = second compound 0.03 µM, first compound 1 µM
[23] = second compound 0.03 µM, first compound 3.16 µM
[24] = second compound 0.03 µM, first compound 10 µM
[25] = second compound 0.0949 µM, first compound 0.0316 µM
[26] = second compound 0.0949 µM, first compound 0.1 µM
[27] = second compound 0.0949 µM, first compound 0.316 µM
[28] = second compound 0.0949 µM, first compound 1 µM
[29] = second compound 0.0949 µM, first compound 3.16 µM
[30] = second compound 0.0949 µM, first compound 10 µM
[31] = second compound 0.3 µM, first compound 0.0316 µM
[32] = second compound 0.3 µM, first compound 0.1 µM
[33] = second compound 0.3 µM, first compound 0.316 µM
[34] = second compound 0.3 µM, first compound 1 µM
[35] = second compound 0.3 µM, first compound 3.16 µM
[36] = second compound 0.3 µM, first compound 10 µM

CC1(O)CCCC1n1c(=O)c(C(F)F)cc2cnc(NC3CCN(S(C)(=O)=O)CC3)nc21 (stereo not given) + CCn1c(-c2cccnc2C(C)OC)c2c3cc(ccc31)N1CCOC(CC(NC(=O)C(C(C)C)N(C)C(=O)C3(F)CCN(C(=O)C#CC(C)(C)N(C)C)CC3)C(=O)N3CCCC(N3)C(=O)OCC(C)(C)C2)C1
active: viability, T/C [6] 1.72% | viability, T/C [12] 1.47% | viability, T/C [18] 2.12% | viability, T/C [24] 2.81% | viability, T/C [30] 2.88% | viability, T/C [36] 2.05%
inactive: viability, T/C [1] 27.5% | viability, T/C [2] 18.5% | viability, T/C [3] 15% | viability, T/C [4] 21.3% | viability, T/C [5] 18.9% | viability, T/C [7] 24.7% | viability, T/C [8] 16.5% | viability, T/C [9] 17.4% | viability, T/C [10] 17.5% | viability, T/C [11] 20.4% | viability, T/C [13] 25.2% | viability, T/C [14] 14.7% | viability, T/C [15] 15.8% | viability, T/C [16] 17.1% | viability, T/C [17] 17.4% | viability, T/C [19] 23% | viability, T/C [20] 16.8% | viability, T/C [21] 15.1% | viability, T/C [22] 18.7% | viability, T/C [23] 14.6% | viability, T/C [25] 19.2% | viability, T/C [26] 17.1% | viability, T/C [27] 17.8% | viability, T/C [28] 15.5% | viability, T/C [29] 14.9% | viability, T/C [31] 19.5% | viability, T/C [32] 16.9% | viability, T/C [33] 15.1% | viability, T/C [34] 16.7% | viability, T/C [35] 15.6%
< 31.6 nM: IC50 (second compound 0.000949 µM) | IC50 (second compound 0.003 µM) | IC50 (second compound 0.00949 µM) | IC50 (second compound 0.03 µM) | IC50 (second compound 0.0949 µM) | IC50 (second compound 0.3 µM)

CCC(CC)c1cc(NC2CCC(N)C2)n2nccc2n1 (stereo not given) + CCn1c(-c2cccnc2C(C)OC)c2c3cc(ccc31)N1CCOC(CC(NC(=O)C(C(C)C)N(C)C(=O)C3(F)CCN(C(=O)C#CC(C)(C)N(C)C)CC3)C(=O)N3CCCC(N3)C(=O)OCC(C)(C)C2)C1
< 31.6 nM: IC50 (second compound 0.000949 µM) | IC50 (second compound 0.003 µM) | IC50 (second compound 0.00949 µM) | IC50 (second compound 0.03 µM) | IC50 (second compound 0.0949 µM) | IC50 (second compound 0.3 µM)
active: viability, T/C [6] 0.38% | viability, T/C [11] 1.84% | viability, T/C [12] 0.31% | viability, T/C [17] 1.37% | viability, T/C [18] 0.37% | viability, T/C [23] 0.57% | viability, T/C [24] 0.34% | viability, T/C [29] 0.71% | viability, T/C [30] 0.48% | viability, T/C [35] 0.58% | viability, T/C [36] 0.67%
inactive: viability, T/C [1] 32.7% | viability, T/C [2] 33.7% | viability, T/C [3] 24.4% | viability, T/C [4] 28% | viability, T/C [5] 3.12% | viability, T/C [7] 27.1% | viability, T/C [8] 25.2% | viability, T/C [9] 28.3% | viability, T/C [10] 25.9% | viability, T/C [13] 27.7% | viability, T/C [14] 25.1% | viability, T/C [15] 31.2% | viability, T/C [16] 25.8% | viability, T/C [19] 25.3% | viability, T/C [20] 28.2% | viability, T/C [21] 28% | viability, T/C [22] 25.3% | viability, T/C [25] 25.7% | viability, T/C [26] 25.3% | viability, T/C [27] 28.1% | viability, T/C [28] 24.1% | viability, T/C [31] 22.5% | viability, T/C [32] 24.1% | viability, T/C [33] 27.1% | viability, T/C [34] 20.8%

CCN1CCN(Cc2ccc(Nc3ncc(F)c(-c4cc(F)c5nc(C)n(C(C)C)c5c4)n3)nc2)CC1 + CCn1c(-c2cccnc2C(C)OC)c2c3cc(ccc31)N1CCOC(CC(NC(=O)C(C(C)C)N(C)C(=O)C3(F)CCN(C(=O)C#CC(C)(C)N(C)C)CC3)C(=O)N3CCCC(N3)C(=O)OCC(C)(C)C2)C1
< 3.16 nM: IC50 (second compound 0.000949 µM) | IC50 (second compound 0.003 µM) | IC50 (second compound 0.00949 µM) | IC50 (second compound 0.03 µM) | IC50 (second compound 0.0949 µM) | IC50 (second compound 0.3 µM)
inactive: viability, T/C (second compound 0.000949 µM, first compound 0.00316 µM) 27.6% | viability, T/C (second compound 0.000949 µM, first compound 0.01 µM) 26.4% | viability, T/C [1] 14% | viability, T/C [2] 15.9% | viability, T/C [3] 14.6% | viability, T/C [4] 10.6% | viability, T/C (second compound 0.003 µM, first compound 0.00316 µM) 28.6% | viability, T/C (second compound 0.003 µM, first compound 0.01 µM) 20.8% | viability, T/C [7] 16.3% | viability, T/C [8] 15% | viability, T/C [9] 12.9% | viability, T/C [10] 10.8% | viability, T/C (second compound 0.00949 µM, first compound 0.00316 µM) 26.9% | viability, T/C (second compound 0.00949 µM, first compound 0.01 µM) 21.9% | viability, T/C [13] 16% | viability, T/C [14] 14.2% | viability, T/C [15] 12.3% | viability, T/C [16] 11.5% | viability, T/C (second compound 0.03 µM, first compound 0.00316 µM) 30.6% | viability, T/C (second compound 0.03 µM, first compound 0.01 µM) 21.5% | viability, T/C [19] 18% | viability, T/C [20] 12.5% | viability, T/C [21] 11.2% | viability, T/C [22] 13.2% | viability, T/C (second compound 0.0949 µM, first compound 0.00316 µM) 23.4% | viability, T/C (second compound 0.0949 µM, first compound 0.01 µM) 22.1% | viability, T/C [25] 15.8% | viability, T/C [26] 13.2% | viability, T/C [27] 10.2% | viability, T/C [28] 14.9% | viability, T/C (second compound 0.3 µM, first compound 0.00316 µM) 22.2% | viability, T/C (second compound 0.3 µM, first compound 0.01 µM) 19.3% | viability, T/C [31] 14.2% | viability, T/C [32] 12.1% | viability, T/C [33] 12% | viability, T/C [34] 14.2%

C[C@@H](NC(=O)c1ncnc(N)c1Cl)c1ncc(C(=O)Nc2cc(C(F)(F)F)c(Cl)cn2)s1 + CCn1c(-c2cccnc2C(C)OC)c2c3cc(ccc31)N1CCOC(CC(NC(=O)C(C(C)C)N(C)C(=O)C3(F)CCN(C(=O)C#CC(C)(C)N(C)C)CC3)C(=O)N3CCCC(N3)C(=O)OCC(C)(C)C2)C1
< 31.6 nM: IC50 (second compound 0.000949 µM) | IC50 (second compound 0.003 µM) | IC50 (second compound 0.00949 µM) | IC50 (second compound 0.03 µM) | IC50 (second compound 0.0949 µM) | IC50 (second compound 0.3 µM)
inactive: viability, T/C [1] 36.4% | viability, T/C [2] 32.5% | viability, T/C [3] 24.2% | viability, T/C [4] 34.2% | viability, T/C [5] 32.5% | viability, T/C [6] 25.4% | viability, T/C [7] 33% | viability, T/C [8] 31.1% | viability, T/C [9] 29.7% | viability, T/C [10] 33.3% | viability, T/C [11] 31.2% | viability, T/C [12] 25.3% | viability, T/C [13] 32.8% | viability, T/C [14] 27.5% | viability, T/C [15] 30.9% | viability, T/C [16] 30.9% | viability, T/C [17] 30.8% | viability, T/C [18] 24.5% | viability, T/C [19] 30.7% | viability, T/C [20] 30.1% | viability, T/C [21] 28.1% | viability, T/C [22] 29.3% | viability, T/C [23] 26.9% | viability, T/C [24] 27.9% | viability, T/C [25] 25.8% | viability, T/C [26] 29.3% | viability, T/C [27] 31.6% | viability, T/C [28] 28.6% | viability, T/C [29] 23.6% | viability, T/C [30] 28.4% | viability, T/C [31] 27.3% | viability, T/C [32] 27.4% | viability, T/C [33] 31% | viability, T/C [34] 23.1% | viability, T/C [35] 26.3% | viability, T/C [36] 27.4%

Cc1nc(N2CCC3(CC2)COC(C)C3N)c(CO)nc1Sc1ccnc(N)c1Cl (stereo not given) + CCn1c(-c2cccnc2C(C)OC)c2c3cc(ccc31)N1CCOC(CC(NC(=O)C(C(C)C)N(C)C(=O)C3(F)CCN(C(=O)C#CC(C)(C)N(C)C)CC3)C(=O)N3CCCC(N3)C(=O)OCC(C)(C)C2)C1
active: viability, T/C [12] 8.35% | viability, T/C [18] 8.24% | viability, T/C [24] 9.82% | viability, T/C [30] 9.12% | viability, T/C [36] 9.33%
inactive: viability, T/C [1] 27.2% | viability, T/C [2] 21% | viability, T/C [3] 13.6% | viability, T/C [4] 15.3% | viability, T/C [5] 12.3% | viability, T/C [6] 9.03% | viability, T/C [7] 25.1% | viability, T/C [8] 20.2% | viability, T/C [9] 16.4% | viability, T/C [10] 16.7% | viability, T/C [11] 12.2% | viability, T/C [13] 24% | viability, T/C [14] 21.4% | viability, T/C [15] 18% | viability, T/C [16] 14.4% | viability, T/C [17] 11.5% | viability, T/C [19] 22.4% | viability, T/C [20] 19.1% | viability, T/C [21] 17.7% | viability, T/C [22] 11.7% | viability, T/C [23] 9.09% | viability, T/C [25] 20.3% | viability, T/C [26] 20.6% | viability, T/C [27] 15.1% | viability, T/C [28] 13.4% | viability, T/C [29] 8.28% | viability, T/C [31] 20% | viability, T/C [32] 17.1% | viability, T/C [33] 18.1% | viability, T/C [34] 11.3% | viability, T/C [35] 7.7%
< 31.6 nM: IC50 (second compound 0.000949 µM) | IC50 (second compound 0.003 µM) | IC50 (second compound 0.00949 µM) | IC50 (second compound 0.03 µM) | IC50 (second compound 0.0949 µM) | IC50 (second compound 0.3 µM)
